Data published in US11655240B1, “Crystal form of compound and fumaric acid, pharmaceutical composition and method for treating coronavirus-induced diseases” (priority 2022, dated 2023).

Legend:
Format in all cases: physicochemical
[1] = Particle size distribution by laser particle size analyzer Mastersizer 3000; settings: dispersed in n-heptane
Method: The particle size distribution of the APIs prepared in the examples of the present disclosure was determined by using a laser particle size analyzer Mastersizer 3000 (Malvern Panalytical, UK). Specifically, about 20 mg of the API (for example, API 5) prepared in the example of the present disclosure was taken, dispersed in 8 mL of n-heptane, sonicated for 10 seconds, added to a sample dispersion unit until the shading degree was in the range from 10% to 20%, and then measured. The stirring speed of the dispersion chamber was 2000 rpm, and the duration was 10 s.

[2] = Dynamic vapor sorption (DVS) analysis
Method: Dynamic vapor sorption analysis was performed using DVS Intrinsic (SMS, UK). The analysis adopted a gradient mode, the humidity change was 50%, 95%, 0%, and 50% in sequence, the humidity change of each gradient in the range from 0% to 90% was 10%, and the end point of the gradient was determined by dm/dt method. The end point of the gradient was determined in response to the dm/dt being less than 0.002% and maintained for 10 minutes.

[3] = Thermogravimetric analysis (TGA); settings: 10° C./min
Method: A thermogravimetric analyzer TA Discovery 55 (TA, US) was used. 2 mg to 5 mg of the sample was placed in an equilibrated open aluminum sample pan and automatically weighed in a TGA oven. The sample was heated to the final temperature at a rate of 10° C./min with a nitrogen purge rate of 60 mL/min at the sample and 40 mL/min at the balance.

[4] = Stability of crystal form A, influencing factor and accelerated stability experiments
Source text: In addition, the inventors also investigated the stability of the crystal form A under conditions of the influencing factor experiment and the accelerated stability experiment, and the results is as follows: […]

| SMILES | Particle size D50 of API [1] [μm] | Particle size D90 of API [1] [μm] | also measured |
| --- | --- | --- | --- |
| Cn1cnc(Cn2c(=O)[nH]/c(=N\c3cc4cn(C)nc4cc3Cl)n(Cc3cc(F)c(F)cc3F)c2=O)n1 [API 4] | 23.5 | 46.7 |  |
| Cn1cnc(Cn2c(=O)[nH]/c(=N\c3cc4cn(C)nc4cc3Cl)n(Cc3cc(F)c(F)cc3F)c2=O)n1 [API 10] | 22.1 | 43.4 |  |
| Cn1cnc(Cn2c(=O)[nH]/c(=N\c3cc4cn(C)nc4cc3Cl)n(Cc3cc(F)c(F)cc3F)c2=O)n1 [crystal form A, (6E)-6-[(6-chloro-2-methyl-2H-indazol-5-yl)imino]-3-[(1-methyl-1H-1,2,4-triazol-3-yl)methyl]-1-(2,4,5-trifluorobenzyl)-1,3,5-triazine-2,4-dione fumaric acid] |  |  | Hygroscopicity ([2]; DVS): almost no hygroscopicity; Crystal form stability, XRPD before and after DVS experiment ([2]; FIG. 3): very stable, is not prone to crystalline transformation; DVS weight loss ([2]; at 0% RH): 0.02%; DVS weight gain ([2]; at 80% RH): 0.06%; TGA decomposition temperature ([3]; nitrogen): higher than 240 °C; TGA weight loss ([3]; heated to 150° C.): basically no weight loss; Stability (appearance, purity, dissociation, crystalline transformation) ([4]; 40° C. and 75% relative humidity (RH), within 2 months): stable; Stability (appearance and purity) ([4]; high temperature, high humidity, and light irradiation, within 30 days): stable |
| Cn1cnc(Cn2c(=O)[nH]/c(=N\c3cc4cn(C)nc4cc3Cl)n(Cc3cc(F)c(F)cc3F)c2=O)n1 [API 1] | 28.9 | 58.6 |  |
| Cn1cnc(Cn2c(=O)[nH]/c(=N\c3cc4cn(C)nc4cc3Cl)n(Cc3cc(F)c(F)cc3F)c2=O)n1 [API 14] | 20.5 | 41.3 |  |
| Cn1cnc(Cn2c(=O)[nH]/c(=N\c3cc4cn(C)nc4cc3Cl)n(Cc3cc(F)c(F)cc3F)c2=O)n1 [API 6] | 8.9 | 15.6 |  |
| Cn1cnc(Cn2c(=O)[nH]/c(=N\c3cc4cn(C)nc4cc3Cl)n(Cc3cc(F)c(F)cc3F)c2=O)n1 [API 12] | 8.3 | 10.9 |  |
| Cn1cnc(Cn2c(=O)[nH]/c(=N\c3cc4cn(C)nc4cc3Cl)n(Cc3cc(F)c(F)cc3F)c2=O)n1 [API 2] | 20.3 | 40.1 |  |
| Cn1cnc(Cn2c(=O)[nH]/c(=N\c3cc4cn(C)nc4cc3Cl)n(Cc3cc(F)c(F)cc3F)c2=O)n1 [API 5] | 18.6 | 34.2 |  |
| Cn1cnc(Cn2c(=O)[nH]/c(=N\c3cc4cn(C)nc4cc3Cl)n(Cc3cc(F)c(F)cc3F)c2=O)n1 [API 8] | 20.1 | 40.7 |  |
| Cn1cnc(Cn2c(=O)[nH]/c(=N\c3cc4cn(C)nc4cc3Cl)n(Cc3cc(F)c(F)cc3F)c2=O)n1 [API 17] | 35.4 | 65.7 |  |
| Cn1cnc(Cn2c(=O)[nH]/c(=N\c3cc4cn(C)nc4cc3Cl)n(Cc3cc(F)c(F)cc3F)c2=O)n1 [API 7] | 22.3 | 45.5 |  |
| Cn1cnc(Cn2c(=O)[nH]/c(=N\c3cc4cn(C)nc4cc3Cl)n(Cc3cc(F)c(F)cc3F)c2=O)n1 [API 15] | 10.2 | 15.8 |  |
| Cn1cnc(Cn2c(=O)[nH]/c(=N\c3cc4cn(C)nc4cc3Cl)n(Cc3cc(F)c(F)cc3F)c2=O)n1 [API 9] | 8.8 | 10.4 |  |
| Cn1cnc(Cn2c(=O)[nH]/c(=N\c3cc4cn(C)nc4cc3Cl)n(Cc3cc(F)c(F)cc3F)c2=O)n1 [API 3] | 8.4 | 10.2 |  |
| Cn1cnc(Cn2c(=O)[nH]/c(=N\c3cc4cn(C)nc4cc3Cl)n(Cc3cc(F)c(F)cc3F)c2=O)n1 [API 11] | 20.6 | 42.7 |  |
| Cn1cnc(Cn2c(=O)[nH]/c(=N\c3cc4cn(C)nc4cc3Cl)n(Cc3cc(F)c(F)cc3F)c2=O)n1 [API 13] | 22.4 | 48.9 |  |
| Cn1cnc(Cn2c(=O)[nH]/c(=N\c3cc4cn(C)nc4cc3Cl)n(Cc3cc(F)c(F)cc3F)c2=O)n1 [API 16] | 38.3 | 70.5 |  |
